From article PMC6891286, “Towards the Development of an In vivo Chemical Probe for Cyclin G Associated Kinase (GAK)” (Molecules, 2019)

Columns and labels:
[1] = metabolite identification in mouse liver microsomes
Procedure: After centrifugation, the supernatant was subjected to analysis by LCMS, and structures of metabolites were assigned on the basis of their molecular weight and fragmentation pattern.
Compounds were incubated at a concentration of 10 µM with mouse liver microsomes in the presence of an excess of NADPH.
1.1. General Numbering of Metabolites
The metabolites are numbered according to their retention times in the gradient LC-MS analysis in positive […]
ion mode. […] The M number increases […]
consecutively for metabolites with increasing retention time.
To avoid confusion, labelled retention times of a metabolite peak in different injections are the same, which may lead to mismatch between labelled retention time and actual retention time.
General Strategy for Metabolite Identification
The vehicle control and study samples were injected into LC-MS with gradient elution using a Q1 scan method. Searching for potential metabolites was then performed using LightSight software (Applied Biosystems/MDS Sciex) by comparing a total ion current chromatogram of Q1 scan from a study sample with a chromatogram from the corresponding vehicle control sample. The study sample was then injected again to obtain the product ion spectra of potential metabolites using product ion scan methods. The fragmentation patterns of the potential metabolites were then compared to the fragmentation of the parent compound to elucidate the structures of the metabolites.
The assignment of fragments is shown
2.2. Identification of Metabolites in Mouse Liver Microsomal Incubation

[2] = molecular target: T1, AURKC (Homo sapiens, UniProt Q9UQB9); test: KINOMEscan; format: binding; conditions: 35 at 1 µM; read-out: % inhibition
T1 construct: purchased Eurofins DiscoverX (KINOMEscan)
Procedure: (§1) KinomeScan Assay on 35 was performed as previously described at EuroFins DiscoverX (Fremont, CA, USA).

[3] = molecular target: T2, CDKL1 (Homo sapiens, UniProt Q00532); test: KINOMEscan; format: binding; conditions: 35 at 1 µM; read-out: % inhibition
T2 construct: purchased Eurofins DiscoverX (KINOMEscan)
Procedure: as §1

[4] = molecular target: T3, FLT3(D835Y) (Homo sapiens, UniProt P36888, D835Y); test: KINOMEscan; format: binding; conditions: 35 at 1 µM; read-out: % inhibition
T3 construct: purchased Eurofins DiscoverX (KINOMEscan)
Procedure: as §1

[5] = molecular target: T4, MAP3K2 (Homo sapiens, UniProt Q9Y2U5); test: KINOMEscan; format: binding; conditions: 35 at 1 µM; read-out: % inhibition
T4 construct: purchased Eurofins DiscoverX (KINOMEscan)
Procedure: as §1

[6] = molecular target: T5, NEK7 (Homo sapiens, UniProt Q8TDX7); test: KINOMEscan; format: binding; conditions: 35 at 1 µM; read-out: % inhibition
T5 construct: purchased Eurofins DiscoverX (KINOMEscan)
Procedure: as §1

[7] = molecular target: T6, PKMYT1 (Homo sapiens, UniProt Q99640); test: KINOMEscan; format: binding; conditions: 35 at 1 µM; read-out: % inhibition
T6 construct: purchased Eurofins DiscoverX (KINOMEscan)
Procedure: as §1

[8] = molecular target: T7, SYK (Homo sapiens, UniProt P43405); test: KINOMEscan; format: binding; conditions: 35 at 1 µM; read-out: % inhibition
T7 construct: purchased Eurofins DiscoverX (KINOMEscan)
Procedure: as §1

[9] = molecular target: T8, TAOK1 (Homo sapiens, UniProt Q7L7X3); test: KINOMEscan; format: binding; conditions: 35 at 1 µM; read-out: % inhibition
T8 construct: purchased Eurofins DiscoverX (KINOMEscan)
Procedure: as §1

[10] = molecular target: T9, TIE1 (Homo sapiens, UniProt P35590); test: KINOMEscan; format: binding; conditions: 35 at 1 µM; read-out: % inhibition
T9 construct: purchased Eurofins DiscoverX (KINOMEscan)
Procedure: as §1

[11] = molecular target: T10, TNK2 (Homo sapiens, UniProt Q07912); test: KINOMEscan; format: binding; conditions: 35 at 1 µM; read-out: % inhibition
T10 construct: purchased Eurofins DiscoverX (KINOMEscan)
Procedure: as §1

T8 sequence (Q7L7X3 whole entry): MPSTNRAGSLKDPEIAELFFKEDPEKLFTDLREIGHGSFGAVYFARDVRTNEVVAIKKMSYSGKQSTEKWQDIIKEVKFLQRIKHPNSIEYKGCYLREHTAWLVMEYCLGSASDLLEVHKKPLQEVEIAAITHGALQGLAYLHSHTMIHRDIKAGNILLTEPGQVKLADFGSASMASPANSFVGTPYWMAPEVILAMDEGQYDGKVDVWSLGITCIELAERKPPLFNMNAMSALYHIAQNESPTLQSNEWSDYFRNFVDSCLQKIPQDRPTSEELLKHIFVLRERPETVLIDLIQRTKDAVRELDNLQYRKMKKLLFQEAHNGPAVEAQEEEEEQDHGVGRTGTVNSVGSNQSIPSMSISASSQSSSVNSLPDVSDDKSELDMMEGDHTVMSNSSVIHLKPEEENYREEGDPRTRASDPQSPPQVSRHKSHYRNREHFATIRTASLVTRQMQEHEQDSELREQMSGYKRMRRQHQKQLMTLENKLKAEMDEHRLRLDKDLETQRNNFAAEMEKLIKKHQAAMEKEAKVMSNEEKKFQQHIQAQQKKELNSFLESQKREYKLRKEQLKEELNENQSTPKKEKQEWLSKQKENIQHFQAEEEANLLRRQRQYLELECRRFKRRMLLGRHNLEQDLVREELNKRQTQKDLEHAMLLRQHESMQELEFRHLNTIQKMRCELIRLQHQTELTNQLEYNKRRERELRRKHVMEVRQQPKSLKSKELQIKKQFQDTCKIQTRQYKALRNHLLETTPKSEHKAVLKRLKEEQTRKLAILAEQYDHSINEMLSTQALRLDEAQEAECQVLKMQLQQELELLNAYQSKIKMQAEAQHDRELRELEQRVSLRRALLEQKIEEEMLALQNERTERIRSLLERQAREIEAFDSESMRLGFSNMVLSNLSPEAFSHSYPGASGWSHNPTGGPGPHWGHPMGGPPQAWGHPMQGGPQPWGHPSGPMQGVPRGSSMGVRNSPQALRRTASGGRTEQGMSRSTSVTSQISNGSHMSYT
T10 sequence (Q07912 whole entry): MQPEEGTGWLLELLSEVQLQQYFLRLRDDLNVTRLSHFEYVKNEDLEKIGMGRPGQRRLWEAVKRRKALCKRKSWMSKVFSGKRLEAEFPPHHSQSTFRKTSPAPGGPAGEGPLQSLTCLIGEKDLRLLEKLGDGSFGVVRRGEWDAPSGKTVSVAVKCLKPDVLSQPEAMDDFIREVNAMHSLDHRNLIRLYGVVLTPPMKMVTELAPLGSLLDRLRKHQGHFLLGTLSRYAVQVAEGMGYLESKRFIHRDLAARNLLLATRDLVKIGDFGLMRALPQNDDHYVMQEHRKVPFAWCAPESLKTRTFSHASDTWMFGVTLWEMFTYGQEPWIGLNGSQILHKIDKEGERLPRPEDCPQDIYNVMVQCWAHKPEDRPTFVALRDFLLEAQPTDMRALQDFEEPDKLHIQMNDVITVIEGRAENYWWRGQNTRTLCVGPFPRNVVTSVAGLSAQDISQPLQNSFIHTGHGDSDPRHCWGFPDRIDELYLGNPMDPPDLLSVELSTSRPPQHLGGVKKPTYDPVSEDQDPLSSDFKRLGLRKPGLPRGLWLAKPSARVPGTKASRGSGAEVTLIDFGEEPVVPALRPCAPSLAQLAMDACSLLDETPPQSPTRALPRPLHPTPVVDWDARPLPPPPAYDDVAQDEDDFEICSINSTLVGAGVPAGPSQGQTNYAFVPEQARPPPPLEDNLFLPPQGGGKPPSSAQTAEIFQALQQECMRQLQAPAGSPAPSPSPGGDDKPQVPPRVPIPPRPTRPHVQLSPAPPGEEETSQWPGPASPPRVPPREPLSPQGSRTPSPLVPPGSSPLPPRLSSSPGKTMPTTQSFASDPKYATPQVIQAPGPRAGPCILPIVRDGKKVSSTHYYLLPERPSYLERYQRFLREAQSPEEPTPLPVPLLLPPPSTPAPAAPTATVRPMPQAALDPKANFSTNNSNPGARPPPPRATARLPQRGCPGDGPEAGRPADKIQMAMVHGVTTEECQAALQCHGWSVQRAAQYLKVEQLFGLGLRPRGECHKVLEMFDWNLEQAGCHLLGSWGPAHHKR
T2 sequence (Q00532 whole entry): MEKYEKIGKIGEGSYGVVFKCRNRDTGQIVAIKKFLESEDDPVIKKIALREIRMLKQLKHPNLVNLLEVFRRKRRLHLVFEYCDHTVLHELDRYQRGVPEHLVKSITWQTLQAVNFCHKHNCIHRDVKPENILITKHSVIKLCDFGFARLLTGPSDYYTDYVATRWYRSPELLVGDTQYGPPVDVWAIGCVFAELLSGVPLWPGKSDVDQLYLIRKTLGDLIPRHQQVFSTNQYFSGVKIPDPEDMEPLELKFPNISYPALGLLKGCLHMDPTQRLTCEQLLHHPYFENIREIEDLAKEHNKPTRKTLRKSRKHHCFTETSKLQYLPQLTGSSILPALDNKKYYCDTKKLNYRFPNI
T1 sequence (Q9UQB9 whole entry): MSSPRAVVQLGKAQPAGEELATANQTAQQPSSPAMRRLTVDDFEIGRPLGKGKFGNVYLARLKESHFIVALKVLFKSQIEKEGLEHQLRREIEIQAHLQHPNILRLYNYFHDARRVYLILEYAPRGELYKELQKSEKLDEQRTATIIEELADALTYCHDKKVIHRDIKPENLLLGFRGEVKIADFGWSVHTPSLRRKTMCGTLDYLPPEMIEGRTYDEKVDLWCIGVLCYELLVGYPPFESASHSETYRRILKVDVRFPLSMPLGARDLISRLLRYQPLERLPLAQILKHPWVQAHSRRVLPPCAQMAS
T9 sequence (P35590 22-1138): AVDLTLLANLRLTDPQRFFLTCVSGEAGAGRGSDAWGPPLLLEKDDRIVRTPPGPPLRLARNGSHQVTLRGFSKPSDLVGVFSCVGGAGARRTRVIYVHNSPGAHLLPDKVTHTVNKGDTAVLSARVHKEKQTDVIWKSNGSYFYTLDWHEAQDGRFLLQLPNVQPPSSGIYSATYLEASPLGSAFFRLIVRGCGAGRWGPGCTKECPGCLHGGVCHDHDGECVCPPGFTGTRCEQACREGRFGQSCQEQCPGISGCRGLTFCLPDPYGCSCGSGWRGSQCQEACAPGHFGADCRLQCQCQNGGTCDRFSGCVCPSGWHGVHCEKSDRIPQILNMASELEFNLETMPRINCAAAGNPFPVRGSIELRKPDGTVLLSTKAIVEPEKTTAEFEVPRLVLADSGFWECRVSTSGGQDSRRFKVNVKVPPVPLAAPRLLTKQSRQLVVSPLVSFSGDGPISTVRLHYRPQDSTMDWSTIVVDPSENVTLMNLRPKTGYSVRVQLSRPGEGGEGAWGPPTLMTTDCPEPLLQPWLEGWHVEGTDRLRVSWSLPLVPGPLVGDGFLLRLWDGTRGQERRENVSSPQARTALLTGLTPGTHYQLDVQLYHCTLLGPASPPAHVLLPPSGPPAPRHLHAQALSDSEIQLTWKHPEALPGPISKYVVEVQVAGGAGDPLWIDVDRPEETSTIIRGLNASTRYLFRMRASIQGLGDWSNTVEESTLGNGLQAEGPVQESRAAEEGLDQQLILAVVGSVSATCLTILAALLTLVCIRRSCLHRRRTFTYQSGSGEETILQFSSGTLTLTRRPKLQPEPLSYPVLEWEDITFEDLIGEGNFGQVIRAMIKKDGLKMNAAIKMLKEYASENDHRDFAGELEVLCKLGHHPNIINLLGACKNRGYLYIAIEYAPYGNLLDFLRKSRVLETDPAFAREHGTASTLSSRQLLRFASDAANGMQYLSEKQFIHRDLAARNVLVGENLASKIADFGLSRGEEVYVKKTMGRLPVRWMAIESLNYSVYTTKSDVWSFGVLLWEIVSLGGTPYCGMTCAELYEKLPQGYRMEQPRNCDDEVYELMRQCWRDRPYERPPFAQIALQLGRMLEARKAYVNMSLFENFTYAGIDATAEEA
T4 sequence (Q9Y2U5 whole entry): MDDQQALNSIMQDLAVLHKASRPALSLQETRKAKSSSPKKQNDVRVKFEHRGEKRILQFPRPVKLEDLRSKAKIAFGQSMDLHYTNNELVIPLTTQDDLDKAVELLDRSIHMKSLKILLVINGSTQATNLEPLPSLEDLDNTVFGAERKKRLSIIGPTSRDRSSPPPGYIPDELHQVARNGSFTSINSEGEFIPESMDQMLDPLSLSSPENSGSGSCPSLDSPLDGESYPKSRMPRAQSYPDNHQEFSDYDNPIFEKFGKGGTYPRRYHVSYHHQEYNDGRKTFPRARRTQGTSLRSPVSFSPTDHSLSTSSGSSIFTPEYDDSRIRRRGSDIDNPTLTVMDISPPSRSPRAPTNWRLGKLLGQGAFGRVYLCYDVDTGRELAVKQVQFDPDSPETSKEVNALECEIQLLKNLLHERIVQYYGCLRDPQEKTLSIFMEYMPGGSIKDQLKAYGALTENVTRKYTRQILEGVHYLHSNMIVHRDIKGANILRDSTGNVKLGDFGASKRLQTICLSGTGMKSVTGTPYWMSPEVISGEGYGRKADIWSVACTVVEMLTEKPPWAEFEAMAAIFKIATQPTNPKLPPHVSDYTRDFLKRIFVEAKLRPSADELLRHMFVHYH
T5 sequence (Q8TDX7 whole entry): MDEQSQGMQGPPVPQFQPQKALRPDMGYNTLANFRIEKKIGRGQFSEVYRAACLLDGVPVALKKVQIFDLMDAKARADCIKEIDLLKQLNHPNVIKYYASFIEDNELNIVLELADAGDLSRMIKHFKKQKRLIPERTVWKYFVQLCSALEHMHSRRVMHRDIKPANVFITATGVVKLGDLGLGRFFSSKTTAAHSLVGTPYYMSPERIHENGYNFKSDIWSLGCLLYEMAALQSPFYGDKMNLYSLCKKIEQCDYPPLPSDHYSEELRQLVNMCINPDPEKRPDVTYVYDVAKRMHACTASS

Compound | Primary Metabolism Site [1] | activity at 1 µM [2] [%] | activity at 1 µM [3] [%] | activity at 1 µM [4] [%] | activity at 1 µM [5] [%] | activity at 1 µM [6] [%] | activity at 1 µM [7] [%] | activity at 1 µM [8] [%] | activity at 1 µM [9] [%] | activity at 1 µM [10] [%] | activity at 1 µM [11] [%]
COc1cc2nccc(Nc3cc(OC)c(OC)c(OC)c3)c2cc1OC [Compound 8] | Aniline | – | – | – | – | – | – | – | – | – | –
Brc1ccc2nccc(Nc3ccc4cn[nH]c4c3)c2c1 [Compound 35, 6-Bromo-N-(1H-indazol-6-yl)quinolin-4-amine] | – | 100 | 47 | 100 | 100 | 92 | 100 | 89 | 95 | 100 | 95
